The text below walks through data of US10583109B2, “Use of silver(I) complexes as anticancer agents” (University of Johannesburg, priority 2012, dated 2020).

In assay [1] the test system is SNO-oesophageal cancer cells. Briefly: Morphological features of SNO-oesophageal cancer cells by inverse light microscopy. Format: cell-based. The following applies: 10 μM, 24 hours of treatment.
Assay [2] has as its system SNO-oesophageal cancer cells. Format: cell-based. As for the experimental part: The SNO-oesophageal cancer cells were cultured in Dulbecco's modified Eagles medium (DMEM) containing 10% Foetal bovine serum (FBS), 0.8% Penicillin/Streptomycin/Fungizone and 0.2% Gentamycin. The SNO-oesophageal cancer cells were subcultured every 48 hours and incubated at 37° C. under a 5% CO2 humidified atmosphere. After 48 hours the cells were trypsinized and plated (6×10^5 cells) in 3.5 cm culture dishes and left to cultivate for 24 hours.
MCF-7 breast cancer cells, in terms of a first study, and SNO-oesophageal cancer cells, in terms of a second study, were treated with 10 μM silverthiocyanide complexes (1)-(5), as well as their ligands (Ligand-1 to Ligand-5) over a 24 hour incubation period. These complexes were dissolved in 0.1% Dimethyl sulfoxide (DMSO). The DMSO alone (vehicle control) decreased the viability with approximately 2.2%, signifying its minimal influence in cancer cell growth. For comparative purposes, 100 μM Cisplatin (CDDP) and 25% H2O2 was included which respectively serves as the apoptotic and necrotic controls. Cisplatin was prepared in 0.9% NaCl, whereas H2O2 was prepared in the supplemented DMEM media right before treatment. An untreated negative control (UT) was exposed to similar conditions as the treated cells and monitored during the experimental study.
An AlamarBlue® Viability® (Serotec, UK) assay was performed after a 24 hour treatment with complexes (1)-(5) and their ligands (Ligand-1 to Ligand-5, respectively) to evaluate the cellular effect the instant complexes (and their ligands) may have on the cancer cells. AlamarBlue® dye (10%) was incubated with trypsinized cells over a 2 hour period before the fluorescence was measured with a Synergy HT Multi-Detection Microplate reader (BioTek, Winooski, Vt.) at wavelengths of 530 nm and (excitation) and 590 nm (emission). This fluorescent based assay in particular involves the metabolic oxidation-reduction reaction of resazurin to a reduced resorufin product that is directly proportional to the amount of viable cells.
The percentage cellular viability of differentially treated SNO-oesophageal cells was determined using an AlamarBlue® assay, as depicted in FIG. 7. Different controls (grey) were included: untreated, 0.1% DMSO solvent and apoptotic control (100 μM Cisplatin) as well as the corresponding ligands (10 μM) of complexes (1)-(5). Cells were treated with silver(I) thiocyanate phosphine complexes (1)-(5) at a concentration of 10 μM. The percentages were calculated with respect to the control and error bars were constructed on the basis of Standard Error of the Mean (SEM) where n=9 except for the ligand of compound 4 (n=8). The P-values (*P<0.001 and **P<0.0001) were determined with the Student's T-test to evaluate the significant difference.
The cells were thereafter treated with complexes (6)-(9) at a concentration of 10 μM prepared in 0.1% DMSO. Treatment with either 25% H2O2 or 100 μM CDDP served as controls for necrosis and apoptosis respectively. The CDDP was prepared in 0.9% NaCl while the H2O2 was diluted with supplemented DMEM prior to treatment.
A suspension (100 μl) of the differentially treated cells was added in triplicate to a microtiter plate. In the dark, AlamarBlue® dye (10 μl) was added to each well containing a sample, followed by a 2 hour incubation in a 5% CO2 incubator at 37° C. The fluorescence was read on a Synergy HT Multi-Detection Microplate reader at a wavelength of 530 nm and (excitation) and 590 nm (emission). In terms of this study, the apoptotic control CDDP (100 μM) was included. Error bars represent the standard error of the mean (SEM) where n=9. The Student's T-test was used to determine the significant difference of the treatments with respect to DMSO (P*<0.05 and P**<0.001). The silver(I) nitrate phosphine complexes under evaluation decreased the cancer cell viability to a large extent compared to DMSO except complex (9).
SNO-oesophageal cancer cells were a gift from the University of Pretoria, RSA. […]

Turning to `C1#[N+][Ag]([P+](c2ccccc2)(c2ccccc2)c2ccccc2)([P+](c2ccccc2)(c2ccccc2)c2ccccc2)[S]C#[N+][Ag]([P+](c2ccccc2)(c2ccccc2)c2ccccc2)([P+](c2ccccc2)(c2ccccc2)c2ccccc2)[S]1` [complex (1), [AgSCN(PPh3)2]2], the “necrotic cell death (morphology)” value in assay [1] was “Necrotic cell death was also observed”. `c1ccc([P+](c2ccccc2)(c2ccccc2)[Ag+]([P+](c2ccccc2)(c2ccccc2)c2ccccc2)([P+](c2ccccc2)(c2ccccc2)c2ccccc2)[P+](c2ccccc2)(c2ccccc2)c2ccccc2)cc1` [complex (9), AgNO3(PPh3)4]: the “cancer cell viability / toxicity” value in assay [2] (10 μM in 0.1% DMSO, 24 hours, compared to vehicle control) was “low cytotoxicity”. Besides, the “cancer cell death induced” value in assay [2] (10 μM, 24 hours) is given as roughly 31.25%. As to [AgSCN{P(4-FC6H4)3}2]2 [complex (3)], the “necrotic cell death (morphology)” value in assay [1] is “Necrotic cell death was also observed”. Moreover, in assay [2] (10 μM, 24 hour treatment, compared to the control), the “percentage cellular viability / toxicity” value was “highly toxic”.
